Assay results published in article PMC10525924, “Engineering and Purification of Microcin C7 Variants Resistant to Trypsin and Analysis of Their Biological Activity” (Antibiotics, 2023).
Converted amounts (≈) assume the structure as drawn. Where a SMILES comes first, the peptide text is derived from it.

How the values were obtained:
[1] = tested on: E. coli K88; experiment: microbe, parasite or virus in culture; format: cell-based; conditions: for Diameters of the inhibition zones, Trypsin-Untreated Group, K88: 200 μL fermentation supernatant, 1 × 10^5 CFU/mL, 4 °C 1 h then 37 °C 24 h, chloramphenicol 100 μL of 0.25 μg/mL
Experimental: (§1) The pH was adjusted to 6.8.
(§2) The fermentation supernatants and pure products were used to characterize the bacteriostatic effects of McC variants by the agar diffusion and microdilution methods. Yej^+rimL^− and E. coli K88 indicator bacteria were applied. The serotype of E. coli K88 was O149:K91, K88ac, a clinically isolated strain, and provided by the College of Veterinary Medicine, China Agricultural University. The indicated bacteria were diluted to 1 × 10^5 CFU/mL and added to plate medium cooled to 50 °C. Two hundred microliters of supernatants were added to each dish, and diffusion was performed at 4 °C for 1 h. After incubation at 37 °C for 24 h, the diameters of the inhibition zones were determined. One hundred microliters of 0.25 μg/mL chloramphenicol was used as a control. The MICs of the pure McC variants were determined by microdilution in a sterilized 96-well microplate. The McC variants were serially diluted 2 times in 96-well microplates with LB medium. The concentrations of the McC variants ranged from 0.125 to 100 µg/mL. Each well was inoculated with 10 μL of overnight bacterial culture at a concentration of 1.0 × 10^5 CFU/mL and incubated at 37 °C for 24 h. A microplate reader was used to automatically observe changes in absorbance at 600 nm in order to monitor bacterial growth. A positive control group (including inoculated medium) and a negative control group (with medium only) were included. The MIC was determined as the lowest concentration of McC variant that inhibited bacterial growth (preventing an increase in the absorbance reading). All tests were performed in triplicate.

[2] = tested on: Yej^+rimL^− strain; experiment: organism not typed; format: cell-based; conditions: for Diameters of the inhibition zones, Trypsin-Treated Group, Yej^+rimL^− / bacteriostatic activity after trypsin treatment, Yej^+rimL^−: supernatant treated with trypsin 50 μg/mL, 37 °C, 3 h; for Diameters of the inhibition zones, Trypsin-Treated Group, Yej^+rimL^−: pH 6.8, 37 °C 24 h; for Diameters of the inhibition zones, Trypsin-Treated Group, Yej^+rimL^− / bacteriostatic activity after trypsin treatment, Yej^+rimL^− / Diameters of the inhibition zones, Trypsin-Untreated Group, Yej^+rimL^−: agar diffusion; for Diameters of the inhibition zones, Trypsin-Treated Group, Yej^+rimL^− / Diameters of the inhibition zones, Trypsin-Untreated Group, Yej^+rimL^−: dash = no zone; for Diameters of the inhibition zones, Trypsin-Untreated Group, Yej^+rimL^−: 200 μL fermentation supernatant, 1 × 10^5 CFU/mL, 4 °C 1 h then 37 °C 24 h, chloramphenicol 100 μL of 0.25 μg/mL
Excerpt: To analyze the antimicrobial ability of the variants, we measured the inhibition zones of all 21 variants by the agar diffusion method. The peptide moiety of McC was recognized by a YejABEf-peptide transporter. The rimL contains an acetyltransferase domain homologous to MccE which can detoxify and provide resistance to McC [17]. The overexpression of the YejABEF gene cluster and rimL gene knockout made the strain hypersensitive to McC. Therefore, the Yej^+rimL^− strain was selected as the sensitive indicator bacterial strain.
as §1, §2

[3] = Remaining amount by RP-HPLC after pepsin treatment; format: in vitro ADME; conditions: isolated enzyme pepsin; pepsin treated for 3 h; read-out RP-HPLC; Table S2
Experimental: (§3) To test whether the variants were tolerant to trypsin or other digestive enzymes, the amount of the remaining McC and its analogues remaining was determined by RP-HPLC after trypsin, pepsin, and chymotrypsin treated for 3 h (Table S2), and the inhibition zones of trypsin-treated variants were tested using the same method (Table 2).

[4] = Remaining amount by RP-HPLC after chymotrypsin treatment; format: in vitro ADME; conditions: isolated enzyme chymotrypsin; chymotrypsin treated for 3 h; read-out RP-HPLC; Table S2
Experimental: as §3

[5] = tested on: Yej^+rimL^− strain; format: cell-based; conditions: HPLC-purified variants; microdilution in LB, 96-well; 0.125 to 100 µg/mL; 1.0 × 10^5 CFU/mL; 37 °C 24 h; absorbance 600 nm; triplicate
Experimental: To accurately characterize the bacteriostatic abilities of the variants, the MICs of the pure McC variants toward the McCsensitive strain Yej^+rimL^− were determined. The MICs of all variants were lower than that of wild-type McC. From smallest to largest MIC, the above five variants were in the following order: R2A, R2T, R2Q, R2S, and R2H. […] Although the diameter of the inhibitory zone of R2M was smaller than those of the above five variants, the bacteriostatic ability of R2M was second only to R2T/R2Q, and the MIC was 50 μg/mL.
as §2

[6] = HPLC retention time according to hydrophobicity; format: physicochemical; conditions: chromatographic, C18 5 μm 9.4 × 250 mm; A 0.1% trichloroacetic acid, B 0.1% trichloroacetic acid with 90% acetonitrile; linear 5% B to 50% B; 1 mL/min; 35 °C; 280 nm; varies according to hydrophobicity
Experimental: To find the separation peaks of the variants, wildtype McC and blank control fermentation broth samples were tested by HPLC. The separation peaks with obvious differences (those with retention times of 11 min and 17 min) were purified and the antimicrobial activity was determined. […] Therefore, the molecular weight was further analyzed by mass spectrometry, and the separation peak at approximately 17 min was confirmed to be that of the desired purified McC. Since the mutations in this study involved only one amino acid and had few effects on the properties of the peptides, we predicted that the separation peaks of the variants should fluctuate around approximately 17 min according to their hydrophobicity. […] The purity of the purified variants was determined by HPLC to be greater than 80% (Table 3).
The lyophilized supernatants were dissolved in deionized water, filtered through 0.22 μm aqueous-phase filter membranes, and purified by high-performance liquid chromatography (HPLC, Agilent Technologies Inc., Palo Alto, CA, USA) with C18 column (5 μm 9.4 × 250 mm, Agilent Technologies Inc., Palo Alto, CA, USA). The mobile phase was composed of 0.1% (v/v) trichloroacetic acid (solvent A) and 0.1% (v/v) trichloroacetic acid with 90% (v/v) acetonitrile (solvent B). A linear gradient from 95% A/5% B to 50% A/50% B was used with a flow rate of 1 mL/min, a sample volume of 10 μL, a column temperature of 35 °C, and a detection wavelength of 280 nm. Electrospray ionization mass spectrometry (ESI-MS) was used to compare the McC variant masses with the expected masses. The relationships between the relative abundances and the mass-to-charge ratios (m/z) of the ions were determined to confirm the identities of the experimentally produced McC variants.

SMILES | zone of inhibition at 0.25 µg/mL ([1]; Escherichia coli, K88, read-out: Diameters of the inhibition zones, Trypsin-Untreated Group, K88) [mm] | Diameters of the inhibition zones, Trypsin-Treated Group, K88 ([1]; supernatant treated with trypsin 50 μg/mL, 37 °C, 3 h, pH 6.8, agar diffusion, 37 °C 24 h, dash = no zone) [mm] | zone of inhibition at 0.25 µg/mL ([2]; read-out: Diameters of the inhibition zones, Trypsin-Untreated Group, Yej^+rimL^−) [mm] | Diameters of the inhibition zones, Trypsin-Treated Group, Yej^+rimL^− [2] [mm] | remaining at 3 h [3] [%] | remaining at 3 h [4] [%] | MIC [5] [µg/mL] | bacteriostatic activity after trypsin treatment, Yej^+rimL^− [2] | Diameters of the inhibition zones, Trypsin-Untreated Group, Yej^+rimL^− [2] [mm] | Retention Time [6] [min] | Diameters of the inhibition zones, Trypsin-Untreated Group, K88 ([1]; agar diffusion, dash = no zone) [mm]
O=C(N[C@H](CO)[C@H](O)c1ccc([N+](=O)[O-])cc1)C(Cl)Cl [Chloramphenicol, reference compound] | 23.6 | 22.79 | 23.4 | 20.96 |  |  |  |  |  |  | 
CSCC[C@H](NC=O)C(=O)N[C@@H](CC(=O)O)C(=O)N[C@H](C(=O)NCC(=O)N[C@@H](CC(N)=O)C(=O)N[C@@H](C)C(=O)N[C@@H](CC(=O)O)C(=O)NP(=O)(OCCCN)OC[C@H]1O[C@@H](n2cnc3c(N)ncnc32)[C@H](O)[C@@H]1O)[C@@H](C)O (stereo partly drawn) [R2D] (HELM PEPTIDE1{[O=C[*:2]].M.D.T.G.N.A.[NCCCOP(=O)(NC(=O)[C@H](CC(=O)O)N[*:1])OC[C@H]1O[C@@H](n2cnc3c(N)ncnc32)[C@H](O)[C@@H]1O]}$$$$V2.0) |  |  |  | 14.11 | 83.9 ± 1.42 | 42.4 ± 1.07 | >100 | exhibited antibacterial effects | 17.71 | 17.625 | 
CSCC[C@H](NC=O)C(=O)N[C@@H](Cc1ccccc1)C(=O)N[C@H](C(=O)NCC(=O)N[C@@H](CC(N)=O)C(=O)N[C@@H](C)C(=O)N[C@@H](CC(=O)O)C(=O)NP(=O)(OCCCN)OC[C@H]1O[C@@H](n2cnc3c(N)ncnc32)[C@H](O)[C@@H]1O)[C@@H](C)O (stereo partly drawn) [R2F] (HELM PEPTIDE1{[O=C[*:2]].M.F.T.G.N.A.[NCCCOP(=O)(NC(=O)[C@H](CC(=O)O)N[*:1])OC[C@H]1O[C@@H](n2cnc3c(N)ncnc32)[C@H](O)[C@@H]1O]}$$$$V2.0) |  |  |  | 10.95 | 82.3 ± 0.94 | 41.1 ± 0.98 |  |  | 13.05 |  | 14.34
CSCC[C@H](NC=O)C(=O)NCC(=O)N[C@H](C(=O)NCC(=O)N[C@@H](CC(N)=O)C(=O)N[C@@H](C)C(=O)N[C@@H](CC(=O)O)C(=O)NP(=O)(OCCCN)OC[C@H]1O[C@@H](n2cnc3c(N)ncnc32)[C@H](O)[C@@H]1O)[C@@H](C)O (stereo partly drawn) [R2G] (HELM PEPTIDE1{[O=C[*:2]].M.G.T.G.N.A.[NCCCOP(=O)(NC(=O)[C@H](CC(=O)O)N[*:1])OC[C@H]1O[C@@H](n2cnc3c(N)ncnc32)[C@H](O)[C@@H]1O]}$$$$V2.0) |  |  |  | 14.15 | 85.89 ± 0.79 | 45.6 ± 1.31 | >100 | exhibited antibacterial effects | 18.86 | 17.253 | 
CSCC[C@H](NC=O)C(=O)N[C@@H](CCCCN)C(=O)N[C@H](C(=O)NCC(=O)N[C@@H](CC(N)=O)C(=O)N[C@@H](C)C(=O)N[C@@H](CC(=O)O)C(=O)NP(=O)(OCCCN)OC[C@H]1O[C@@H](n2cnc3c(N)ncnc32)[C@H](O)[C@@H]1O)[C@@H](C)O (stereo partly drawn) [R2K] (HELM PEPTIDE1{[O=C[*:2]].M.K.T.G.N.A.[NCCCOP(=O)(NC(=O)[C@H](CC(=O)O)N[*:1])OC[C@H]1O[C@@H](n2cnc3c(N)ncnc32)[C@H](O)[C@@H]1O]}$$$$V2.0) |  |  |  | 0 | 87.69 ± 0.68 | 41.4 ± 0.73 |  |  | 20.91 |  | 16.95
CSCC[C@H](NC=O)C(=O)N[C@@H](CC(C)C)C(=O)N[C@H](C(=O)NCC(=O)N[C@@H](CC(N)=O)C(=O)N[C@@H](C)C(=O)N[C@@H](CC(=O)O)C(=O)NP(=O)(OCCCN)OC[C@H]1O[C@@H](n2cnc3c(N)ncnc32)[C@H](O)[C@@H]1O)[C@@H](C)O (stereo partly drawn) [R2L] (HELM PEPTIDE1{[O=C[*:2]].M.L.T.G.N.A.[NCCCOP(=O)(NC(=O)[C@H](CC(=O)O)N[*:1])OC[C@H]1O[C@@H](n2cnc3c(N)ncnc32)[C@H](O)[C@@H]1O]}$$$$V2.0) |  |  |  | 0 | 79.25 ± 0.62 | 39.2 ± 0.75 | >100 |  | 14.40 | 19.425 | 
CSCC[C@H](NC=O)C(=O)N[C@H](C(=O)N[C@H](C(=O)NCC(=O)N[C@@H](CC(N)=O)C(=O)N[C@@H](C)C(=O)N[C@@H](CC(=O)O)C(=O)NP(=O)(OCCCN)OC[C@H]1O[C@@H](n2cnc3c(N)ncnc32)[C@H](O)[C@@H]1O)[C@@H](C)O)C(C)C (stereo partly drawn) [R2V] (HELM PEPTIDE1{[O=C[*:2]].M.V.T.G.N.A.[NCCCOP(=O)(NC(=O)[C@H](CC(=O)O)N[*:1])OC[C@H]1O[C@@H](n2cnc3c(N)ncnc32)[C@H](O)[C@@H]1O]}$$$$V2.0) |  |  |  | 14.62 | 79 ± 1.24 | 39.1 ± 1.05 | 50 (≈ 44.6 µM) | exhibited antibacterial effects | 21.34 | 18.151 | 
CSCC[C@H](NC=O)C(=O)N[C@@H](Cc1ccc(O)cc1)C(=O)N[C@H](C(=O)NCC(=O)N[C@@H](CC(N)=O)C(=O)N[C@@H](C)C(=O)N[C@@H](CC(=O)O)C(=O)NP(=O)(OCCCN)OC[C@H]1O[C@@H](n2cnc3c(N)ncnc32)[C@H](O)[C@@H]1O)[C@@H](C)O (stereo partly drawn) [R2Y] (HELM PEPTIDE1{[O=C[*:2]].M.Y.T.G.N.A.[NCCCOP(=O)(NC(=O)[C@H](CC(=O)O)N[*:1])OC[C@H]1O[C@@H](n2cnc3c(N)ncnc32)[C@H](O)[C@@H]1O]}$$$$V2.0) |  |  |  | 14.93 | 85.22 ± 0.72 | 45.4 ± 1.18 | >100 | exhibited antibacterial effects | 18.87 | 18.591 | 
